Experimental data: patent US8642788B2, “Activators of executioner procaspases 3, 6 and 7” (The Regents of the University of California, priority 2008, dated 2014)

Assays:
procaspase-6 = biological target: T1, procaspase-6 (Homo sapiens, UniProt P55212); assay: Executioner procaspase-6 activation assay (Ac-VEID-AFC fluorogenic substrate); type: biochemical; details: incubation with compound for 5 h at 37° C.; 100 nM procaspase
T1 sequence (P55212 1-293): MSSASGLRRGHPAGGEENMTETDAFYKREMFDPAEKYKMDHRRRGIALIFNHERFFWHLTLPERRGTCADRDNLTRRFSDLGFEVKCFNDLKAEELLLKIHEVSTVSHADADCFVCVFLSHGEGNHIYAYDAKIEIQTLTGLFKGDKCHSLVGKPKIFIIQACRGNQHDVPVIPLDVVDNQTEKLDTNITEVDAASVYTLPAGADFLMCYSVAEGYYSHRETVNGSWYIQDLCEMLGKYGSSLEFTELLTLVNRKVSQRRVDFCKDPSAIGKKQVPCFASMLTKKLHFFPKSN
Procedure: The executioner procaspase-3, -6 and -7 activation assay protocol involves incubating the target protein at the physiologically-relevant concentration of 100 nM with activating compounds (ranging from 100 nM to 100 uM) in a total volume of 50 μL consisting of a reaction buffer of 50 mM HEPES, pH 7.4, 50 mM KCl, 1 mM DTT and 0.01% Triton-X100 (to reduce false positive hits due to compound aggregation). The procaspase/small molecule incubations are then agitated at 37° C. and assayed at various time points by addition of the fluorogenic peptide substrate 7-Amino-4-trifluoromethylcoumarin-DEVD (Ac-DEVD-AFC) (procaspases-3, -7) or Ac-VEID-AFC (procaspase-6) to a final concentration of 25 μM and analyzed by a kinetic 30 minute assay (excitation 365 nm and emission 495 nm). The final concentration of DMSO in each well is 3% and has no effect on enzyme stability or activity. […] All components of the assay including protein, substrate and inhibitor are stored as frozen aliquots and thawed immediately prior to the assay.
Tables 1 and 2. Procaspase activation as a result of incubation with compound for 5 h at 37° C. (+++ EC50˜0.5-10 μM; ++ EC50˜10-50 μM; + EC50˜50-200 μM; -no activation observed; ND not determined).

procaspase-3 = biological target: T2, procaspase-3 (Homo sapiens, UniProt P42574); assay: Executioner procaspase-3 activation assay (Ac-DEVD-AFC fluorogenic substrate); type: biochemical; details: incubation with compound for 5 h at 37° C.; 100 nM procaspase; read-out: Procaspase Activation 3
T2 construct: His6 (C); made in house; host or cells: E. coli BL21(DE3)RP, pET-23b
T2 sequence (P42574 1-277): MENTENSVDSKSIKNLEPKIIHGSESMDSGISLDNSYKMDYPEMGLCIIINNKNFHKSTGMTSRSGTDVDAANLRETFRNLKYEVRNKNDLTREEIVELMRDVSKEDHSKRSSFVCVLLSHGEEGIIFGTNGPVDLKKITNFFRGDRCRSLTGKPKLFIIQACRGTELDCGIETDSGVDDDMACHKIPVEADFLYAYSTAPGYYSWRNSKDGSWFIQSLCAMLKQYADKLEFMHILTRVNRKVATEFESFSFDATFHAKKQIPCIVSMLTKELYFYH
Procedure: The executioner procaspase-3, -6 and -7 activation assay protocol involves incubating the target protein at the physiologically-relevant concentration of 100 nM with activating compounds (ranging from 100 nM to 100 uM) in a total volume of 50 μL consisting of a reaction buffer of 50 mM HEPES, pH 7.4, 50 mM KCl, 1 mM DTT and 0.01% Triton-X100 (to reduce false positive hits due to compound aggregation). […] All components of the assay including protein, substrate and inhibitor are stored as frozen aliquots and thawed immediately prior to the assay.

EC50 (procaspase-6) | EC50 (procaspase-3) | SMILES
> 100 µM | > 100 µM | O=C(Nc1cccc(-c2cn3ccccc3n2)c1)c1cc2cc(I)ccc2oc1=O [compound 10, 6-Iodo-2-oxo-2H-chromene-3-carboxylic acid (3-imidazo[1,2-a]pyridin-2-yl-phenyl)-amide]
> 100 µM | > 100 µM | COc1cccc2cc(C(=O)Nc3cccc(-c4nc5ccccc5[nH]4)c3)c(=O)oc12 [1541F, 8-Methoxy-2-oxo-2H-chromene-3-carboxylic acid [3-(1H-benzoimidazol-2-yl)-phenyl]-amide]
> 100 µM | 50 to 200 µM | O=C(Nc1cccc(-c2cn3ccccc3n2)c1)C1=Cc2cc(Cl)ccc2OC1 [compound 180, 6-Chloro-2H-chromene-3-carboxylic acid (3-imidazo[1,2-a]pyridin-2-yl-phenyl)-amide]
> 100 µM | > 100 µM | COc1ccc2cc(C(=O)Nc3cccc(-c4cn5ccccc5n4)c3)c(=O)oc2c1 [1541C, 7-Methoxy-2-oxo-2H-chromene-3-carboxylic acid (3-imidazo[1,2-a]pyridin-2-yl-phenyl)-amide]
> 100 µM | > 100 µM | O=C(Nc1cccc(-c2cn3ccccc3n2)c1)c1cc2cc(OC(F)(F)F)ccc2oc1=O [compound 9, 6-Trifluoromethoxy-2-oxo-2H-chromene-3-carboxylic acid (3-imidazo[1,2-a]pyridin-2-yl-phenyl)-amide]
> 100 µM | > 100 µM | O=C(Nc1cccc(-c2cn3ccccc3n2)c1)c1cc2cccc(OC(F)(F)F)c2oc1=O [1541B, 2-Oxo-8-trifluoromethoxy-2H-chromene-3-carboxylic acid (3-imidazo[1,2-a]pyridin-2-yl-phenyl)-amide]
> 100 µM | > 100 µM | COc1ccc2oc(=O)c(C(=O)Nc3cccc(-c4cn5ccccc5n4)c3)cc2c1 [compound 6, 6-Methoxy-2-oxo-2H-chromene-3-carboxylic acid (3-imidazo[1,2-a]pyridin-2-yl-phenyl)-amide]
> 100 µM | > 100 µM | CCOc1cccc2cc(C(=O)Nc3cccc(-c4cn5ccccc5n4)c3)c(=O)oc12 [compound 5, 8-Ethoxy-2-oxo-2H-chromene-3-carboxylic acid (3-imidazo[1,2-a]pyridin-2-yl-phenyl)-amide]
> 100 µM | > 100 µM | COc1cccc2c1OCC(C(=O)Nc1cccc(-c3cn4ccccc4n3)c1)=C2 [compound 182, 8-Methoxy-2H-chromene-3-carboxylic acid (3-imidazo[1,2-a]pyridin-2-yl-phenyl)-amide]
> 100 µM | > 100 µM | COc1cccc2cc(C(=O)Nc3ccccc3)c(=O)oc12 [1541H, 8-Methoxy-2-oxo-2H-chromene-3-carboxylic acid phenylamide]
> 100 µM | > 100 µM | COc1cc(CN2CCOCC2)c2oc(=O)c(C(=O)Nc3cccc(-c4cn5ccccc5n4)c3)cc2c1 [1541D, 6-Methoxy-8-morpholin-4-ylmethyl-2-oxo-2H-chromene-3-carboxylic acid (3-imidazo[1,2-a]pyridin-2-yl-phenyl)-amide]
> 100 µM | > 100 µM | O=C(Nc1cccc(-c2cn3ccccc3n2)c1)c1cc2cccc(Br)c2oc1=O [compound 4, 8-Bromo-2-oxo-2H-chromene-3-carboxylic acid (3-imidazo[1,2-a]pyridin-2-yl-phenyl)-amide]
10 to 50 µM | 10 to 50 µM | COc1cccc2cc(C(=O)Nc3cccc(-c4cn5ccccc5n4)c3)oc12 [compound 179, 7-Methoxy-benzofuran-2-carboxylic acid (3-imidazo[1,2-a]pyridin-2-yl-phenyl)-amide]
 | > 100 µM | COc1ccc2cc(C(=O)Nc3cccc(-c4cn5ccccc5n4)c3)c(=O)oc2c1OC [compound 8, 7,8-Dimethoxy-2-oxo-2H-chromene-3-carboxylic acid (3-imidazo[1,2-a]pyridin-2-yl-phenyl)-amide]
50 to 200 µM | 50 to 200 µM | O=C(Nc1cccc(-c2cn3ccccc3n2)c1)c1cc2cc(Br)ccc2oc1=O [compound 1, 6-Bromo-2-oxo-2H-chromene-3-carboxylic acid (3-imidazo[1,2-a]pyridin-2-yl-phenyl)-amide]
 | > 100 µM | O=C(Nc1cccc(-c2cn3ccccc3n2)c1)c1cc2ccccc2oc1=O [compound 13, 2-oxo-2H-chromene-3-carboxylic acid (3-imidazo[1,2-a]pyridin-2-yl-phenyl)-amide]
> 100 µM | > 100 µM | COc1cccc2cc(C(=O)Nc3cccc(N4CCOCC4)c3)c(=O)oc12 [1541I, 8-Methoxy-2-oxo-2H-chromene-3-carboxylic acid (3-morpholin-4-yl-phenyl)-amide]
> 100 µM | > 100 µM | COc1cccc2cc(C(=O)Nc3cccc(-c4ccncc4)c3)c(=O)oc12 [compound 20, 8-Methoxy-2-oxo-2H-chromene-3-carboxylic acid (3-pyridin-4-yl-phenyl)-amide]
> 100 µM | > 100 µM | O=C(Nc1cccc(-c2cn3ccccc3n2)c1)c1cc2cc(O)c(O)cc2oc1=O [compound 7, 6,7-Dihydroxy-2-oxo-2H-chromene-3-carboxylic acid (3-imidazo[1,2-a]pyridin-2-yl-phenyl)-amide]
 | 0.5 to 10 µM | COc1cccc2cc(C(=O)Nc3ccc(-c4nc5ccccc5[nH]4)cc3)c(=O)oc12 [compound 183, 8-Methoxy-2-oxo-2H-chromene-3-carboxylic acid [4-(1H-benzoimidazol-2-yl)-phenyl]-amide]
> 100 µM | 50 to 200 µM | O=C(Nc1cccc(-c2cn3ccccc3n2)c1)c1cc2ccc(O)c(O)c2oc1=O [compound 3, 7,8-Dihydroxy-2-oxo-2H-chromene-3-carboxylic acid (3-imidazo[1,2-a]pyridin-2-yl-phenyl)-amide]
0.5 to 10 µM |  | COc1cccc2cc(C(=O)Nc3cccc(-c4cn5ccccc5n4)c3)c(=O)oc12 [compound 1541, 8-Methoxy-2-oxo-2H-chromene-3-carboxylic acid (3-imidazo[1,2-a]pyridin-2-yl-phenyl)-amide]
0.5 to 10 µM | 0.5 to 10 µM | O=C(Nc1cccc(-c2cn3ccccc3n2)c1)c1cc2cccc(F)c2oc1=O [compound 2, 8-Fluoro-2-oxo-2H-chromene-3-carboxylic acid (3-imidazo[1,2-a]pyridin-2-yl-phenyl)-amide]
> 100 µM | > 100 µM | COc1cc(N2CCOCC2)c2oc(=O)c(C(=O)Nc3cccc(-c4cn5ccccc5n4)c3)cc2c1 [compound 14, 6-Methoxy-8-morpholin-4-yl-2-oxo-2H-chromene-3-carboxylic acid (3-imidazo[1,2-a]pyridin-2-yl-phenyl)-amide]
10 to 50 µM | 10 to 50 µM | O=C(Nc1cccc(-c2cn3ccccc3n2)c1)c1cc2ccccc2[nH]c1=O [compound 181, 2-Oxo-1,2-dihydro-quinoline-3-carboxylic acid (3-imidazo[1,2-a]pyridin-2-yl-phenyl)-amide]
> 100 µM | 0.5 to 10 µM | O=C(Nc1cccc(-c2cn3ccccc3n2)c1)c1cc2cccc(O)c2oc1=O [1541A, 8-Hydroxy-2-oxo-2H-chromene-3-carboxylic acid (3-imidazo[1,2-a]pyridin-2-yl-phenyl)-amide]
> 100 µM | > 100 µM | O=C(Nc1cccc(-c2cn3ccccc3n2)c1)c1cc2cc(O)ccc2oc1=O [compound 11, 6-Hydroxy-2-oxo-2H-chromene-3-carboxylic acid (3-imidazo[1,2-a]pyridin-2-yl-phenyl)-amide]
